Reference: publication PMC4331153, “In Vitro Inhibitory and Cytotoxic Activity of MFM 501, a Novel Codonopsinine Derivative, against Methicillin-Resistant Staphylococcus aureus Clinical Isolates” (BioMed Research International, 2015)
Values after ≈ are worked out from the molar mass of the structure shown. Read-outs that look alike come from different tables or passages of the source.

What was measured:
Type in all cases: cell-based
[1] = system: S. aureus ATCC 25923 (MSSA reference strain); assay: MIC determination, broth microdilution, ATCC 25923; settings: Staphylococcus aureus
[2] = system: S. aureus ATCC 33591 (MRSA reference strain); assay: MIC determination, broth microdilution, ATCC 33591; settings: Staphylococcus aureus
[3] = system: S. aureus isolates (MRSA and MSSA); assay: MIC determination, S. aureus isolates (MRSA and MSSA); settings: Staphylococcus aureus, ATCC 25923 / ATCC 33591 / MRSA / MSSA; all four test isolates (N441, U949, ATCC 25923, ATCC 33591), preliminary evaluation
[4] = system: S. aureus isolate U949; assay: MIC determination, broth microdilution, isolate U949; settings: Staphylococcus aureus
[5] = system: S. aureus isolate N441; assay: MIC determination, broth microdilution, isolate N441; settings: Staphylococcus aureus

SMILES | MIC ([1]; ATCC 25923, read-out: MIC) | MIC ([2]; ATCC 33591, read-out: MIC) | MIC [3] | MIC ([4]; isolate U949, read-out: MIC) | MIC ([5]; isolate N441, read-out: MIC) | MIC [1] | MIC [2] | MIC [4] | MIC [5]
CCOC(=O)C1=C(O)C(=O)N(Cc2ccccc2)C1c1ccc(OC)cc1 (stereo not drawn) [26e] | 250 µg/mL (≈ 680 µM) | 125 µg/mL (≈ 340 µM) | 125 to 250 µg/mL (≈ 340 to 680 µM) | 250 µg/mL (≈ 680 µM) | 125 µg/mL (≈ 340 µM) |  |  |  | 
Cc1onc(-c2ccccc2)c1C(=O)N[C@@H]1C(=O)N2[C@@H]1SC(C)(C)[C@@H]2C(=O)O [Oxacillin, reference compound] | 0.24 µg/mL (≈ 0.598 µM) | 250 µg/mL (≈ 623 µM) |  | 500 µg/mL (≈ 1250 µM) | 500 µg/mL (≈ 1250 µM) |  |  |  | 
CN[C@H](CC(C)C)C(=O)N[C@H]1C(=O)N[C@@H](CC(N)=O)C(=O)N[C@H]2C(=O)N[C@H]3C(=O)N[C@H](C(=O)N[C@H](C(=O)O)c4cc(O)cc(O)c4-c4cc3ccc4O)[C@H](O)c3ccc(c(Cl)c3)Oc3cc2cc(c3O[C@@H]2O[C@H](CO)[C@@H](O)[C@H](O)[C@H]2O[C@H]2C[C@](C)(N)[C@H](O)[C@H](C)O2)Oc2ccc(cc2Cl)[C@H]1O [Vancomycin, reference compound] |  |  |  |  |  | 0.78 µg/mL (≈ 0.538 µM) | 3.13 µg/mL (≈ 2.16 µM) | 1.56 µg/mL (≈ 1.08 µM) | 1.56 µg/mL (≈ 1.08 µM)

Now from value to molecule, other results behind:

MIC ([1]; ATCC 25923, read-out: MIC) | MIC ([2]; ATCC 33591, read-out: MIC) | MIC [3] | MIC ([4]; isolate U949, read-out: MIC) | MIC ([5]; isolate N441, read-out: MIC) | SMILES | MIC [1] | MIC [2] | MIC [4] | MIC [5]
250 µg/mL (≈ 928 µM) | 125 µg/mL (≈ 464 µM) | 125 to 250 µg/mL (≈ 464 to 928 µM) | 125 µg/mL (≈ 464 µM) | 125 µg/mL (≈ 464 µM) | CCCCCCC1C(C(=O)OCC)=C(O)C(=O)N1C (stereo not drawn) [16e] |  |  |  | 
> 1000 µg/mL | > 1000 µg/mL |  | > 1000 µg/mL | > 1000 µg/mL | C=CCOc1ccc(C2C(C(=O)OCC)=C(O)C(=O)N2C)cc1 (stereo not drawn) [27e] |  |  |  | 
1000 µg/mL (≈ 3630 µM) | 500 µg/mL (≈ 1820 µM) | 500 to 1000 µg/mL (≈ 1820 to 3630 µM) | 500 µg/mL (≈ 1820 µM) | 500 µg/mL (≈ 1820 µM) | CCOC(=O)C1=C(O)C(=O)N(C)C1c1ccc(C)cc1 (stereo not drawn) [compound 19e] |  |  |  | 
